Read-outs that look alike come from different tables or passages of the source.
Columns and labels:
ERRγ1 = molecular target: T1, ERRγ1 (Homo sapiens, UniProt P62508); conditions: stated as known property; cited from earlier work
T1 sequence (P62508 1-435 isoform P62508-2): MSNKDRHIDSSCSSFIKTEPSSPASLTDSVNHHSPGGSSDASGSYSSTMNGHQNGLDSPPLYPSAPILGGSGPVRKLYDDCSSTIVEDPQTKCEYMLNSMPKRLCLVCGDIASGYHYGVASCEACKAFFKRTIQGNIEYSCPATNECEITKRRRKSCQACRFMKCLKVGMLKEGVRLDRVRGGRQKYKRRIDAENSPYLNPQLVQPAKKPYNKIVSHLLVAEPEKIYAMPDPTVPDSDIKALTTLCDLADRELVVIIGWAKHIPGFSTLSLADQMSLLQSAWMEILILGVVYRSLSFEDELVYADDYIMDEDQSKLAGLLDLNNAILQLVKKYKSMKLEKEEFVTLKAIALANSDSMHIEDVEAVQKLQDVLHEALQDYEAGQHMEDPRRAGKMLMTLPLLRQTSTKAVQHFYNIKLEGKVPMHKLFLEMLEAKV

ERRγ2 = conditions: stated as known property, cited from earlier work
RARα = molecular target: T2, RARα (Homo sapiens, UniProt P10276); assay: Reporter gene assay, ERRγ3 coexisted with RARα, pGVP2-RARE in CV-1 cells; type: cell-based; conditions: 5×10^−8 M retinoic acid, FIG. 22
T2 construct: expressed in transfected cells; host or cells: CV-1 (African green monkey kidney)
T2 sequence (P10276 1-462): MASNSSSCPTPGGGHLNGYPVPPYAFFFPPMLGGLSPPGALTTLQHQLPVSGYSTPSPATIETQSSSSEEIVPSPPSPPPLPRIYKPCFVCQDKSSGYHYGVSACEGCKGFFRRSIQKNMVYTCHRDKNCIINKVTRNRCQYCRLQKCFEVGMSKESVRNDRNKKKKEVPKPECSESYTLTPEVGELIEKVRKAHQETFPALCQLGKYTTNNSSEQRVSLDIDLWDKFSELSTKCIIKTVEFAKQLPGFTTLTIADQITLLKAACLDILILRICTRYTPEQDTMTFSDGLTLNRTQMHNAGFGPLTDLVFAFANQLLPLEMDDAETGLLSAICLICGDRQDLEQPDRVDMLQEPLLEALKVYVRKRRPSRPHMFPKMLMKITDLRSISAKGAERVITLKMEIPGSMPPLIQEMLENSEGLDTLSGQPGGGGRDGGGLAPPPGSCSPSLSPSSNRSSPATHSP
T2 sequence (P19793 1-462 partner): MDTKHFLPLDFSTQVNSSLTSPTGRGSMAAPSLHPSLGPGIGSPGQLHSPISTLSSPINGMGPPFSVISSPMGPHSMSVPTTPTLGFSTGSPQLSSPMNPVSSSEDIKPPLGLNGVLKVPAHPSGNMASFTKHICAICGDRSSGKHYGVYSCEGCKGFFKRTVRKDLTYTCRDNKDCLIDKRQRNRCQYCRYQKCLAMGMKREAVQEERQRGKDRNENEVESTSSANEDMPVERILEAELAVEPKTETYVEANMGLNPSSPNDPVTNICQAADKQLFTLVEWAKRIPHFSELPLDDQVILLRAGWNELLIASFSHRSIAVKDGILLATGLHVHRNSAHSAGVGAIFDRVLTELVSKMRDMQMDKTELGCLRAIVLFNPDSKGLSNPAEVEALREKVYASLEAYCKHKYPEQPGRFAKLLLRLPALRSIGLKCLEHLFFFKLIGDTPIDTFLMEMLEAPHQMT
Source text: The reporter gene assay was used to evaluate the effect of ligand 4-hydroxytamoxifen and 5×10^−8 M of retinoic acid on the function of ERRγ3 in enhancing the transcriptional activation function of retinoic acid receptor (RAR) (FIG. 22). RAR is a nuclear receptor belonging to group B of subfamily 1.
CV-1 cells (a cell line derived from the kidney of African green monkey) were used as hosts in the reporter gene assay. The luciferase reporter plasmid pGVP2-RARE and the expression plasmids for ERRγ3 and RARα: pcDNA3.1-ERRγ3 and pcDNA3.1-RARα, respectively, or alternatively the expression plasmid for both nuclear receptors, were transfected into the host cells. […]
Transfection was performed as follows: CV-1 cells were resuspended in DMEM supplemented with 10% fetal bovine serum, 2000 U/l of penicillin G, and 100 mg/l of streptomycin to a concentration of 2×10^5 cells/2.5 ml. […] 1 μg of each of the expression plasmids for the transcription factors, the luciferase reporter plasmid, and another luciferase reporter plasmid used for normalization of the measured values (pRL-TK), were dissolved in Opti-MEM (Gibco BRL), to a total of 150 μl. […] Luciferase activity was measured using the Dual-Luciferase™ Reporter Assay System (Promega). […] The protocol for measurement was as follows: 50 μl of Luciferase Assay Reagent II was added to each well, stirred for 0.3 seconds, and measured for one second. […]

Chain of ERRγ2 (P62508 whole entry): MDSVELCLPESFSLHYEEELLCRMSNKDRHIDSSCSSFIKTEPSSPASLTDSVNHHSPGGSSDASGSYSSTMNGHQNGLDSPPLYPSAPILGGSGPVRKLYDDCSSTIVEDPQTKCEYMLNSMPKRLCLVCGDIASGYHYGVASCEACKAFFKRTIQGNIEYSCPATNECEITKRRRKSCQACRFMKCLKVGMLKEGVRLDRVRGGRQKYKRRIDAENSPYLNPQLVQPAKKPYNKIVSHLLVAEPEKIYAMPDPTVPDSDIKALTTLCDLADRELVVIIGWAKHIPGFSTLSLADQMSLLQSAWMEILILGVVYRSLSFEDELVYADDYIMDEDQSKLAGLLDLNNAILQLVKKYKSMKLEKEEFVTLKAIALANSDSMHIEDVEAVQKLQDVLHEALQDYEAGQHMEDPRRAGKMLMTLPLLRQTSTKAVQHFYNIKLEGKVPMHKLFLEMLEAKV

4-hydroxytamoxifen [reference compound]
inhibition of the transcriptional activation function of ERRγ1 (ERRγ1): inhibiting their transcriptional activation function | inhibition of the transcriptional activation function of ERRγ2 (ERRγ2): known to inhibit ERRγ2 activity | inhibition of the transcriptional activation function of ERRγ2 (ERRγ2; listed as 4-OHT): inhibiting their transcriptional activation function

B1: ERRγ3: novel ERRγ isoform, nuclear receptor protein of 396 amino acids (SEQ ID NO: 2) lacking part of the DNA binding domain (protein, listed as Homo sapiens)
chain: MSNKDRHIDSSCSSFIKTEPSSPASLTDSVNHHSPGGSSDASGSYSSTMNGHQNGLDSPPLYPSAPILGGSGPVRKLYDDCSSTIVEDPQTKCEYMLNSMPKRLCLVCGDIASGYHYGVASCEACKAFFKRTIQGVRLDRVRGGRQKYKRRIDAENSPYLNPQLAQPAKKPYNKIVSHLLVAEPEKIYAMPDPTVPDSDIKALTTLCDLADRELVVIIGWAKHIPGFSTLSLADQMSLLQSAWMEILILGVVYRSLSFEDELVYADDYIMDEDQSKLAGLLDLNNAILQLVKKYKSMKLEKEEFVTLKAIALANSDSMHIEDVEAVQKLQDVLHEALQDYEAGQHMEDPRRAGKMLMTLPLLRQTSTKAVQHFYNIKLEGKVPMHKLFLEMLEAKV
modifying effect on the transcriptional stimulation activity of RAR (RARα): did not show a significant modifying effect
